Data from US12150447B2, “Plant growth regulator” (University of Washington, priority 2017, dated 2024).

Assays:
[1] = target: T1, wild-type auxin receptor (TIR1) (Arabidopsis thaliana, UniProt Q570C0); assay: Evaluation of binding to auxin receptor (yeast two-hybrid assay), wild-type receptor; conditions: yeast EGY48, LacZ reporter, X-gal, 30° C. for 3 days; wild type auxin receptor with AUX/IAA protein
T1 construct: expressed in transfected cells; host or cells: Saccharomyces cerevisiae strain EGY48
T1 sequence (Q570C0 1-594): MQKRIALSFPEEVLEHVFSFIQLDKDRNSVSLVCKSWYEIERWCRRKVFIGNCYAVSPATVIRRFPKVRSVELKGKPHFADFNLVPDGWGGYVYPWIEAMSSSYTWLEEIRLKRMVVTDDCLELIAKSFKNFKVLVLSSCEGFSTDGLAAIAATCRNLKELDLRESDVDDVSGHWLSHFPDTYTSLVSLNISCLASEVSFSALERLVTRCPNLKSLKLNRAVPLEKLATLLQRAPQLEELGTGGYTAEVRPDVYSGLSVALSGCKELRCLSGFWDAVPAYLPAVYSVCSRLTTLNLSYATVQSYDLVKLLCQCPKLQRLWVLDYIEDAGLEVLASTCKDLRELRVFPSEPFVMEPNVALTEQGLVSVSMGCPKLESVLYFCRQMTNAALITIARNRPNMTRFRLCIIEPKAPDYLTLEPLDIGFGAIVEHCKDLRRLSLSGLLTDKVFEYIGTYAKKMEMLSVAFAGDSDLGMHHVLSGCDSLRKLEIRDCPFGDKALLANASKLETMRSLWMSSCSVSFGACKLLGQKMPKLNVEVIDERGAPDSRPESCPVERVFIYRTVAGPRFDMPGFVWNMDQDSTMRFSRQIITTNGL
T1 sequence (Q38822 1-93 partner limits assumed): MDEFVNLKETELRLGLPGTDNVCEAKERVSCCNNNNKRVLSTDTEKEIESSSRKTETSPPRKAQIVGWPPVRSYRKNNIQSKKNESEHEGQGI
Method: (§1) Test Example 1: Evaluation of Binding to Auxin Receptor (Yeast Two-Hybrid Assay
(§2) Specifically, the inventors set up the assay in the following manner.
The transformant was cultured at 30° C. on an agar plate made of yeast growth medium (minimal SD base and -His/-Trp/-Ura dropout supplement). The colonies were picked up and incubated overnight in liquid SD/-His/-Trp/-Ura medium at 30° C. Afterwards, the medium was replaced with a liquid medium composed of minimal SD/Gal/Raf base, -His/-Trp/-Ura dropout supplement, 50 mM Na-phosphate buffer (pH 7.0), […] X-gal, and various concentrations of test compounds. After incubation at 30° C. for 3 days, the medium containing yeast was transferred to a white 96-well plate (flat bottom) and observed.
(§3) In Table 1, the concentration of “wt TIR” indicates the minimum concentration of the test compound in which the well turns blue when the wild type auxin receptor is used, whereas the concentration of “mut” indicates the minimum concentration of the test compound in which the well turns blue when the mutant auxin receptor (TIR1 F79G) is used.

[2] = target: T2, mutant auxin receptor (TIR1 F79G) (Arabidopsis thaliana, UniProt Q570C0, F79G); assay: Evaluation of binding to auxin receptor (yeast two-hybrid assay), mutant TIR1 F79G; conditions: for mut TIR: minimum concentration of the test compound in which the well turns blue: yeast EGY48, LacZ reporter, X-gal, 30° C. for 3 days, TIR1 F79G with AUX/IAA protein
T2 construct: expressed in transfected cells; host or cells: Saccharomyces cerevisiae strain EGY48
T2 sequence (Q570C0 whole entry F79G, one chain of several): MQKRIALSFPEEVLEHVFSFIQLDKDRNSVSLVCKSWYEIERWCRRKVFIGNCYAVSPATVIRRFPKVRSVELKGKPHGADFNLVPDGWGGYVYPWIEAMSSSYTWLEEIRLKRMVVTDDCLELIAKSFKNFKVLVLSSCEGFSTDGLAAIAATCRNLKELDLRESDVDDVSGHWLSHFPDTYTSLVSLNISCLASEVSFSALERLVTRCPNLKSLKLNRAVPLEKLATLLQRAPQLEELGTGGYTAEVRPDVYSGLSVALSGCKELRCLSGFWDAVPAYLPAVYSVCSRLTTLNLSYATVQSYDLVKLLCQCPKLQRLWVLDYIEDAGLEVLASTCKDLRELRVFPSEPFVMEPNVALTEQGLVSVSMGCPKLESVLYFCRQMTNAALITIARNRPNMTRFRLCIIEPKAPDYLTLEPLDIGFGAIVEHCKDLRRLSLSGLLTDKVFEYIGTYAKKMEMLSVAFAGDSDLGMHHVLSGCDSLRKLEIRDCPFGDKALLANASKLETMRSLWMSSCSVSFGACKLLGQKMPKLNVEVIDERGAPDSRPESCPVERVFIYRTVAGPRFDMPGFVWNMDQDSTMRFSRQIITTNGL
Description: as §1, §2
Yeast strain EGY48 was transformed into a plasmid (pSH18-34) containing a LacZ expression cassette (LexA-operon: LacZ reporter) that is transcriptionally regulated by the LexA-operon, a plasmid derived from pGLex313 containing an expression cassette of LexA-DNA-binding domain fusion protein A (the wild-type auxin receptor: SEQ ID NO. 1, or mutant auxin receptor (TIR1 F79G) where the amino acid residue 79 (phenylalanine) in the wild-type is mutated to a glycine: SEQ ID NO. 2), and a plasmid derived from pJG4-5 containing an expression cassette of B42 transcription activator fusion protein B (AUX/IAA protein: SEQ ID NO: 3). The transformant was cultured at 30° C. on an agar plate made of yeast growth medium (minimal SD base and -His/-Trp/-Ura dropout supplement). The colonies were picked up and incubated overnight in liquid SD/-His/-Trp/-Ura medium at 30° C. Afterwards, the medium was replaced with a liquid medium composed of minimal SD/Gal/Raf base, -His/-Trp/-Ura dropout supplement, 50 mM Na-phosphate buffer (pH 7.0), […] X-gal, and various concentrations of test compounds. After incubation at 30° C. for 3 days, the medium containing yeast was transferred to a white 96-well plate (flat bottom) and observed. The lower the concentration of the test compound when blue color appears, the higher the binding between the test compound and the auxin receptor (wild type or mutant) is. Conversely, higher the concentration of test compound when the blue color appears for the first time, the lower the binding between the test compound and the auxin receptor (wild type or mutant).
as §3

O=C(O)Cc1c[nH]c2ccc(-c3cc4ccccc4s3)cc12 [Compound 14, 2-(5-(Benzo[b]thiophen-2-yl)-1H-indol-3-yl)acetic acid]
wt TIR: minimum concentration of the test compound in which the well turns blue [1]: >1 µM | mut TIR: minimum concentration of the test compound in which the well turns blue [2]: 0.01 µM

COc1ccccc1-c1ccc2[nH]cc(CC(=O)O)c2c1 [Example 27A, 5-(2-methoxyphenyl)-indole-3-acetic acid]
wt TIR: minimum concentration of the test compound in which the well turns blue [1]: 100 µM | mut TIR: minimum concentration of the test compound in which the well turns blue [2]: 10 µM

COc1cccc(-c2ccc3[nH]cc(CC(=O)O)c3c2)c1 [Example 27B, 5-(3-methoxyphenyl)-indole-3-acetic acid]
wt TIR: minimum concentration of the test compound in which the well turns blue [1]: 100 µM | mut TIR: minimum concentration of the test compound in which the well turns blue [2]: 1 µM

O=C(O)Cc1c[nH]c2ccc(-c3ccc4ccccc4c3)cc12 [Example 27D, 5-(2-naphthyl)-indole-3-acetic acid]
wt TIR: minimum concentration of the test compound in which the well turns blue [1]: 10 µM | mut TIR: minimum concentration of the test compound in which the well turns blue [2]: 0.1 µM

O=C(O)Cc1c[nH]c2ccc(-c3ccccc3)cc12 [Example 42A, 5-(2-Phenyl)-indole-3-acetic acid]
wt TIR: minimum concentration of the test compound in which the well turns blue [1]: 1 µM | mut TIR: minimum concentration of the test compound in which the well turns blue [2]: 0.01 µM

O=C(O)Cc1c[nH]c2ccccc12 [Indole-3-acetic acid, indole-3-acetic acid, reference compound]
wt TIR: minimum concentration of the test compound in which the well turns blue [1]: 0.1 µM | binding affinity of the mutant auxin receptor (TIR1 F79G) relative to that of the wild type auxin receptor ([2]; ratio mutant / wild type, from Table 1): less than 1/1000 | mut TIR: minimum concentration of the test compound in which the well turns blue [2]: >100 µM

Cc1ccccc1-c1ccc2[nH]cc(CC(=O)O)c2c1 [MK-189, 2-(5-(o-tolyl)-1H-indol-3-yl)acetic acid]
wt TIR: minimum concentration of the test compound in which the well turns blue [1]: 10 µM | mut TIR: minimum concentration of the test compound in which the well turns blue [2]: 0.1 µM

Cc1cccc(-c2ccc3[nH]cc(CC(=O)O)c3c2)c1 [MK-190, 2-(5-(m-tolyl)-1H-indol-3-yl)acetic acid]
wt TIR: minimum concentration of the test compound in which the well turns blue [1]: 10 µM | mut TIR: minimum concentration of the test compound in which the well turns blue [2]: 0.1 µM

CC(C)(C)c1ccc(-c2ccc3[nH]cc(CC(=O)O)c3c2)cc1 [MK-198, 2-(5-(4-(tert-butyl)phenyl)-1H-indol-3-yl) acetic acid]
wt TIR: minimum concentration of the test compound in which the well turns blue [1]: 100 µM | mut TIR: minimum concentration of the test compound in which the well turns blue [2]: 10 µM

O=C(O)Cc1c[nH]c2ccc(-c3ccc4c(c3)OCO4)cc12 [MK-209, 2-(5-(benzo[d][1,3]dioxol-5-yl)-1H-indol-3-yl) acetic acid]
wt TIR: minimum concentration of the test compound in which the well turns blue [1]: 10 µM | mut TIR: minimum concentration of the test compound in which the well turns blue [2]: 0.1 µM

CCOc1cccc(-c2ccc3[nH]cc(CC(=O)O)c3c2)c1 [MK-211, 2-(5-(3-ethoxyphenyl)-1H-indol-3-yl)acetic acid]
wt TIR: minimum concentration of the test compound in which the well turns blue [1]: 100 µM | mut TIR: minimum concentration of the test compound in which the well turns blue [2]: 10 µM

Cc1cc(-c2ccc3[nH]cc(CC(=O)O)c3c2)ccc1F [MK-213, 2-(5-(4-fluoro-3-methylphenyl)-1H-indol-3-yl)acetic acid]
wt TIR: minimum concentration of the test compound in which the well turns blue [1]: 10 µM | mut TIR: minimum concentration of the test compound in which the well turns blue [2]: 0.1 µM

COc1ccc(-c2ccc3[nH]cc(CC(=O)O)c3c2)cc1C [MK-214, 2-(5-(4-methoxy-3-methylphenyl)-1H-indol-3-yl)acetic acid]
wt TIR: minimum concentration of the test compound in which the well turns blue [1]: 100 µM | mut TIR: minimum concentration of the test compound in which the well turns blue [2]: 10 µM

Cc1ccc(C)c(-c2ccc3[nH]cc(CC(=O)O)c3c2)c1 [MK-221, 2-(5-(2,5-dimethylphenyl)-1H-indol-3-yl)acetic acid]
wt TIR: minimum concentration of the test compound in which the well turns blue [1]: >100 µM | mut TIR: minimum concentration of the test compound in which the well turns blue [2]: 10 µM

Cc1ccc(-c2ccc3[nH]cc(CC(=O)O)c3c2)cc1C [MK-230, 2-(5-(3,4-dimethylphenyl)-1H-indol-3-yl)acetic acid]
wt TIR: minimum concentration of the test compound in which the well turns blue [1]: 10 µM | mut TIR: minimum concentration of the test compound in which the well turns blue [2]: 0.1 µM

O=C(O)Cc1c[nH]c2cc(-c3ccccc3-c3ccccc3)ccc12 [MK-232, 2-(6-([1,1′-biphenyl]-2-yl)-1H-indol-3-yl)acetic acid]
wt TIR: minimum concentration of the test compound in which the well turns blue [1]: 100 µM | mut TIR: minimum concentration of the test compound in which the well turns blue [2]: 10 µM

Cc1cccc(-c2ccc3c(CC(=O)O)c[nH]c3c2)c1 [MK-245, 2-(6-(m-tolyl)-1H-indol-3-yl)acetic acid]
wt TIR: minimum concentration of the test compound in which the well turns blue [1]: 10 µM | mut TIR: minimum concentration of the test compound in which the well turns blue [2]: 0.1 µM

O=C(O)Cc1c[nH]c2cc(-c3ccc4c(c3)OCO4)ccc12 [MK-247, 2-(6-(benzo[d][1,3]dioxol-5-yl)-1H-indol-3-yl)acetic acid]
wt TIR: minimum concentration of the test compound in which the well turns blue [1]: 10 µM | mut TIR: minimum concentration of the test compound in which the well turns blue [2]: 0.1 µM

O=C(O)Cc1c[nH]c2cc(-c3cccc(Oc4ccccc4)c3)ccc12 [MK-248, 2-(6-(3-phenoxyphenyl)-1H-indol-3-yl)acetic acid]
wt TIR: minimum concentration of the test compound in which the well turns blue [1]: 10 µM | mut TIR: minimum concentration of the test compound in which the well turns blue [2]: 0.1 µM

O=C(O)Cc1c[nH]c2ccc(-c3ccc(F)c(Cl)c3)cc12 [MK-255, 2-(5-(3-chloro-4-fluorophenyl)-1H-indol-3-yl)acetic acid]
wt TIR: minimum concentration of the test compound in which the well turns blue [1]: 100 µM | mut TIR: minimum concentration of the test compound in which the well turns blue [2]: 1 µM

Cc1ccc(Cl)c(-c2ccc3[nH]cc(CC(=O)O)c3c2)c1 [MK-307, 2-(5-(2-chloro-5-methylphenyl)-1H-indol-3-yl)acetic acid]
wt TIR: minimum concentration of the test compound in which the well turns blue [1]: >100 µM | mut TIR: minimum concentration of the test compound in which the well turns blue [2]: 10 µM

O=C(O)Cc1c[nH]c2ccc(-c3cc(Cl)ccc3Cl)cc12 [MK-308, 2-(5-(2,5-dichlorophenyl)-1H-indol-3-yl)acetic acid]
wt TIR: minimum concentration of the test compound in which the well turns blue [1]: 100 µM | mut TIR: minimum concentration of the test compound in which the well turns blue [2]: 10 µM

Cc1ccc(Cl)cc1-c1ccc2[nH]cc(CC(=O)O)c2c1 [MK-309, 2-(5-(5-chloro-2-methylphenyl)-1H-indol-3-yl)acetic acid]
wt TIR: minimum concentration of the test compound in which the well turns blue [1]: 100 µM | mut TIR: minimum concentration of the test compound in which the well turns blue [2]: 10 µM

CCC(C)COc1ccc2[nH]cc(CC(=O)O)c2c1 (centres unmarked) [MK-322, 2-(5-(2-methylbutoxy)-1H-indol-3-yl)acetic acid]
wt TIR: minimum concentration of the test compound in which the well turns blue [1]: 10 µM | mut TIR: minimum concentration of the test compound in which the well turns blue [2]: 0.1 µM

CCCCCCCOc1ccc2[nH]cc(CC(=O)O)c2c1 [MK-323, 2-(5-(heptyloxy)-1H-indol-3-yl)acetic acid]
wt TIR: minimum concentration of the test compound in which the well turns blue [1]: 100 µM | mut TIR: minimum concentration of the test compound in which the well turns blue [2]: 10 µM

O=C(O)Cc1c[nH]c2ccc(OCC3CCCCC3)cc12 [MK-333, 2-(5-(cyclohexylmethoxy)-1H-indol-3-yl)acetic acid]
wt TIR: minimum concentration of the test compound in which the well turns blue [1]: 100 µM | mut TIR: minimum concentration of the test compound in which the well turns blue [2]: 0.1 µM
